Measured values: patent US20210363254A1, “PHARMACEUTICAL COMBINATIONS” (Novartis AG, priority 2018, published 2021)
Where two headings read alike, the source gives them in different places.

## COc1ncc(-c2nc3c(n2C(C)C)[C@H](c2ccc(Cl)cc2)N(c2cc(Cl)cn(C)c2=O)C3=O)c(OC)n1 [HDM201, (S)-5-(5-Chloro-1-methyl-2-oxo-1,2-dihydro-pyridin-3-yl)-6-(4-chloro-phenyl)-2-(2,4-dimethoxy-pyrimidin-5-yl)-1-isopropyl-5,6-dihydro-1H-pyrrolo[3,4-d]imidazol-4-one]
1B 200 mg, N=3
  Hyperkalaemia, Grade 3/4: 0 n (%)
  Hypocalcaemia, All Grades: 0 n (%)
  Hypocalcaemia, Grade 3/4: 0 n (%)
  Influenza Like Illness, All Grades: 0 n (%)
  Influenza Like Illness, Grade 3/4: 0 n (%)
  Lethargy, All Grades: 0 n (%)
  Lethargy, Grade 3/4: 0 n (%)
  Leukopenia, All Grades: 0 n (%)
  Leukopenia, Grade 3/4: 0 n (%)
  Lipase Increased, All Grades: 1 (33.3) n (%)
  Lipase Increased, Grade 3/4: 1 (33.3) n (%)
  Lymphopenia, All Grades: 0 n (%)
  Lymphopenia, Grade 3/4: 0 n (%)
  Monocytosis, All Grades: 0 n (%)
  Monocytosis, Grade 3/4: 0 n (%)
  Musculoskeletal Pain, All Grades: 0 n (%)
  Musculoskeletal Pain, Grade 3/4: 0 n (%)
  Myalgia, All Grades: 0 n (%)
  Myalgia, Grade 3/4: 0 n (%)
  Nausea, All Grades: 1 (33.3) n (%)
  Nausea, Grade 3/4: 0 n (%)
  Neuralgia, All Grades: 0 n (%)
  Neuralgia, Grade 3/4: 0 n (%)
  Neutropenia, All Grades: 0 n (%)
  Neutropenia, Grade 3/4: 0 n (%)
  Neutrophil Count Decreased, All Grades: 0 n (%)
  Neutrophil Count Decreased, Grade 3/4: 0 n (%)
  Oedema, All Grades: 1 (33.3) n (%)
  Oedema, Grade 3/4: 0 n (%)
  Oral Candidiasis, All Grades: 0 n (%)
  Oral Candidiasis, Grade 3/4: 0 n (%)
  Platelet Count Decreased, All Grades: 0 n (%)
  Platelet Count Decreased, Grade 3/4: 0 n (%)
  Pruritus, All Grades: 0 n (%)
  Pruritus, Grade 3/4: 0 n (%)
  Thrombocytopenia, All Grades: 0 n (%)
  Thrombocytopenia, Grade 3/4: 0 n (%)
  Total, All Grades: 3 (100) n (%)
  Total, Grade 3/4: 1 (33.3) n (%)
  Vomiting, All Grades: 0 n (%)
  Vomiting, Grade 3/4: 0 n (%)
  Weight Decreased, All Grades: 0 n (%)
  Weight Decreased, Grade 3/4: 0 n (%)
  White Blood Cell Count Decreased, All Grades: 0 n (%)
  White Blood Cell Count Decreased, Grade 3/4: 0 n (%)
1B all subjects, N=20
  Abdominal Pain, All Grades: 3 n (%)
  Abdominal Pain, Grade 3/4: 0 n (%)
  Alanine Aminotransferase Increased, All Grades: 1 n (%)
  Alanine Aminotransferase Increased, Grade 3/4: 0 n (%)
  Alopecia, All Grades: 1 n (%)
  Alopecia, Grade 3/4: 0 n (%)
  Amylase Increased, All Grades: 1 n (%)
  Amylase Increased, Grade 3/4: 0 n (%)
  Anaemia, All Grades: 5 n (%)
  Anaemia, Grade 3/4: 0 n (%)
  Asthenia, All Grades: 2 n (%)
  Asthenia, Grade 3/4: 0 n (%)
  Blood Bilirubin Increased, All Grades: 1 n (%)
  Blood Bilirubin Increased, Grade 3/4: 0 n (%)
  Blood Creatine Phosphokinase Increased, All Grades: 2 n (%)
  Blood Creatine Phosphokinase Increased, Grade 3/4: 1 n (%)
  Blood Creatinine Increased, All Grades: 2 n (%)
  Blood Creatinine Increased, Grade 3/4: 0 n (%)
  Decreased Appetite, All Grades: 4 n (%)
  Decreased Appetite, Grade 3/4: 0 n (%)
  Dehydration, All Grades: 1 n (%)
  Dehydration, Grade 3/4: 0 n (%)
  Diarrhoea, All Grades: 5 n (%)
  Diarrhoea, Grade 3/4: 0 n (%)
  Dry Skin, All Grades: 1 n (%)
  Dry Skin, Grade 3/4: 0 n (%)
  Dysgeusia, All Grades: 1 n (%)
  Dysgeusia, Grade 3/4: 0 n (%)
  Eye Pain, All Grades: 1 n (%)
  Eye Pain, Grade 3/4: 0 n (%)
  Fatigue, All Grades: 4 n (%)
  Fatigue, Grade 3/4: 1 n (%)
  Folliculitis, All Grades: 1 n (%)
  Folliculitis, Grade 3/4: 0 n (%)
  Gamma-Glutamyltransferase Increased, All Grades: 1 n (%)
  Gamma-Glutamyltransferase Increased, Grade 3/4: 0 n (%)
  Headache, All Grades: 1 n (%)
  Headache, Grade 3/4: 0 n (%)
  Hyperkalaemia, All Grades: 1 n (%)
  Hyperkalaemia, Grade 3/4: 0 n (%)
  Hypocalcaemia, All Grades: 1 n (%)
  Hypocalcaemia, Grade 3/4: 0 n (%)
  Influenza Like Illness, All Grades: 1 n (%)
  Influenza Like Illness, Grade 3/4: 0 n (%)
  Lethargy, All Grades: 1 n (%)
  Lethargy, Grade 3/4: 0 n (%)
  Leukopenia, All Grades: 2 n (%)
  Leukopenia, Grade 3/4: 1 n (%)
  Lipase Increased, All Grades: 4 n (%)
  Lipase Increased, Grade 3/4: 3 n (%)
  Lymphopenia, All Grades: 2 n (%)
  Lymphopenia, Grade 3/4: 1 n (%)
  Monocytosis, All Grades: 1 n (%)
  Monocytosis, Grade 3/4: 0 n (%)
  Musculoskeletal Pain, All Grades: 1 n (%)
  Musculoskeletal Pain, Grade 3/4: 0 n (%)
  Myalgia, All Grades: 1 n (%)
  Myalgia, Grade 3/4: 0 n (%)
  Nausea, All Grades: 12 n (%)
